# Experimental data taken from patent publication US10493077B2, “Fused imidazo-piperidine JAK inhibitor compound” (THERAVANCE BIOPHARMA R&D IP, LLC, priority 2017, dated 2019).
# Key:
# [1] = Lung and plasma pharmacokinetics in mice; format: in vivo, mouse; conditions: BALB/c mice, Form 1 suspension 0.1 mg/mL, 50 μL by oral aspiration
# Procedure: Plasma and lung concentrations of compound 1 and ratios thereof were determined in the following manner. BALB/c mice from Charles River Laboratories were used in the assay. Compound 1 Form 1 of example 2 was formulated in 0.01% Tween 80 in normal saline (0.9% sodium chloride in water) at a concentration of 0.1 mg/mL as a suspension. 50 μL of the suspension formulation was introduced into the trachea of a mouse by oral aspiration. At various time points (0.083, 1, 4, 24, 48, 72, and 96 hr). Post dosing, blood samples were removed via cardiac puncture and intact lungs were excised from the mice. Blood samples were centrifuged (Eppendorf centrifuge, 5804R) for 4 minutes at approximately 12,000 rpm at 4° C. to collect plasma. Lungs were padded dry, weighed, and homogenized at a dilution of 1:3 in sterile water. Plasma and lung concentrations of compound 1 were determined by LC-MS analysis against analytical standards constructed into a standard curve in the test matrix. […] The lung half-life was calculated at approximately 40 hours. The lung to plasma ratio was determined as the ratio of the lung AUC in μg hr/g to the plasma AUC in μg hr/mL (where AUC is conventionally defined as the area under the curve of test compound concentration vs. time).
# [2] = Dermal pharmacokinetics in mouse skin; format: in vivo; conditions: mice, model cream and ointment formulations, without detectable plasma exposure
# From the text: The objective of this assay was to determine the epidermal, dermal and plasma pharmacokinetics of a test compound following a 24 hr exposure to intact mouse or mini-pig skin.
# Twenty-four hours prior to dosing the hair was shaved from the back of 25 g male Balb/c mice exposing an area at of least 6 cm^2 (about 10% of body surface) and, in a separate experiment, of 10 kg Gottingen mini-pigs exposing an area of at least 450 cm^2 (about 10% of body surface). At time zero, following isoflurane anesthesia, the test compound was applied to the back of mice or mini-pigs at a dose of 25 μL/cm^2. The skin was covered with an adhesive cover to prevent loss of compound to the cage or bedding.
# Following 24 h exposure, the backs were gently washed with soap and water to remove non-absorbed drug and patted dry. Immediately following this washing, blood was drawn by cardiac puncture from the mice and via venipuncture from the mini-pigs. The outer skin (stratum corneum) was then removed by adhesive tape stripping. Upon exposure of the epidermis a 0.5 cm punch biopsy was taken. The epidermis and dermis were quickly separated, weighed and snap frozen. […]
# Epidermis and dermis samples were homogenized in 1:10 (w/v) water using a Covaris ultrasonic homogenizer. Samples were extracted in 3 volumes of acetonitrile and quantified against a standard curve via LC-MS analysis.
# [3] = tested on: IFNγ stimulated STAT1 phosphorylation in CD14+ monocytes; test: Cellular JAK potency assay: inhibition of IFNγ-induced pSTAT1 in CD14+ monocytes; format: cell-based; conditions: Homo sapiens, Monocyte, read-out: pIC50, inhibition of IFNγ-induced pSTAT1 (converted)
# Procedure: The potency of the test compound for inhibition of interferon gamma (IFNγ) stimulated STAT1 phosphorylation was measured in CD14-positive (CD14+) monocytes derived from human whole blood (Stanford Blood Center) using flow cytometry. Because IFNγ signals through JAK, this assay provides a measure of JAK cellular potency.
# Monocytes were identified using a fluorescein isothiocyanate (FITC) conjugated anti-CD14 antibody (Clone RM052, Beckman Coulter), and an Alexa Fluor 647 conjugated anti-pSTAT1 antibody (pY701, Clone 4a, BD Biosciences) was used to detect STAT1 phosphorylation.
# Human peripheral blood mononuclear cells (PBMC) were isolated from human whole blood of healthy donors using a ficoll gradient. […] Cells were washed twice with FACS buffer, and then resuspended in 1:10 anti-pSTAT1 Alexa Fluor 647:FACS buffer (100 μL) for 30 min at RT in the dark, washed twice in FACS buffer, and analyzed using a LSRII flow cytometer (BD Biosciences).
# To determine the inhibitory potency of the test compound, the median fluorescent intensity (MFI) of pSTAT1 was measured in CD14+ monocytes. IC50 values were determined from analysis of the inhibition curves of MFI vs compound concentration. Data are expressed as pIC50 (negative decadic logarithm IC50) values.
# CDK7 = target: T1, CDK7 (Homo sapiens, UniProt P50613); test: Kinome screen, CDK7; format: binding; conditions: screened at 1 μM
# T1 construct: made in house; host or cells: T7 phage in E. coli (BL21-derived) or HEK-293
# Procedure: Kinase-tagged T7 phage strains were grown in parallel in 24-well blocks in an E. coli host derived from the BL21 strain. E. coli were grown to log-phase and infected with T7 phage from a frozen stock (multiplicity of infection=0.4) and incubated with shaking at 32° C. until lysis (90-150 minutes). The lysates were centrifuged (6,000×g) and filtered (0.2 μm) to remove cell debris. The remaining kinases were produced in HEK-293 cells and subsequently tagged with DNA for qPCR detection.
# Streptavidin-coated magnetic beads were treated with biotinylated small molecule ligands for 30 minutes at room temperature to generate affinity resins for kinase assays. The liganded beads were blocked with excess biotin and washed with blocking buffer (SeaBlock (Pierce), 1% BSA, 0.05% Tween 20, 1 mM DTT) to remove unbound ligand and to reduce non-specific phage binding. […] Test compounds were prepared as 40× stocks in 100% DMSO and directly diluted into the assay. All reactions were performed in polypropylene 384-well plates in a final volume of 0.04 ml. […] The beads were then re-suspended in elution buffer (1×PBS, 0.05% Tween 20, 0.5 μM non-biotinylated affinity ligand) and incubated at room temperature with shaking for 30 minutes. The kinase concentration in the eluates was measured by qPCR.
# T1 sequence (P50613 whole entry): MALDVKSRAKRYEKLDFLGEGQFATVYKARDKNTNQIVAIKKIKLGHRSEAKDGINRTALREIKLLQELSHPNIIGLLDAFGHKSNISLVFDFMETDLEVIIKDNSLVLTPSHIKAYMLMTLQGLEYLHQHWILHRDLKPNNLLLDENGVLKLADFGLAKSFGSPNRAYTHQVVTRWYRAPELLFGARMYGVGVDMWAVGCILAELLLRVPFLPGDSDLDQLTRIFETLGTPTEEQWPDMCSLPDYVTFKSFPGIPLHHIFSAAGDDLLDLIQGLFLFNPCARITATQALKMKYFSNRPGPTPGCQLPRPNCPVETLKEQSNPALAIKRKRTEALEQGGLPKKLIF
compound,measurement,setting,value
"CCc1cc(O)c(F)cc1-c1cc(F)c2c(-c3nc4c([nH]3)CCN(C(=O)CN3CCOCC3)C4)n[nH]c2c1 [Compound 1, 1-(2-(6-(2-ethyl-5-fluoro-4-hydroxyphenyl)-4-fluoro-1H-indazol-3-yl)-1,4,6,7-tetrahydro-5H-imidazo[4,5-c]pyridin-5-yl)-2-morpholinoethan-1-one]",lung AUC (0-96 hr),[1],360 µg·h/g
same,Kp,"[1]; mouse, lung and plasma, 5 μg/mouse, read-out: lung to plasma AUC ratio",1780
same,half-life,"[1]; mouse, lung, 5 μg/mouse",~40 h
same,duration of sustained dermal levels,[2],at least 2 days
same,IC50,[3],~79.4 nM
same,inhibition at 1 µM,CDK7,74%
